# Experiments:
# Caspase-1 = target: T1, Caspase-1 (Homo sapiens, UniProt P29466); assay: Caspase-1 enzyme inhibition (Ki); assay type: biochemical; settings: substrate Suc-YVAD-pNA 80 μM, 37° C., pH 7.5
# T1 sequence (P29466 120-297 limits assumed): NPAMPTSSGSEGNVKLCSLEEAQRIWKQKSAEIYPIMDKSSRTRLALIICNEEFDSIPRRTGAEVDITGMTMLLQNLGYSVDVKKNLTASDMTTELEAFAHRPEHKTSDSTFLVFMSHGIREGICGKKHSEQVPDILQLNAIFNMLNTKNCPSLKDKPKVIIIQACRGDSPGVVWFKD
# T1 sequence (P29466 317-404 limits assumed): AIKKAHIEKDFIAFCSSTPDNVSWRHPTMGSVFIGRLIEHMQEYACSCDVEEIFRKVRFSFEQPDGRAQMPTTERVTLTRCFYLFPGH
# How it was run: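 Ki obtained by fitting rate versus inhibitor concentration to the Morrison tight-binding equation for competitive inhibitors, with pNA release read at 405 nm at 37 °C. Substrate Suc-YVAD-pNA (80 μM final) added after 15 min enzyme–inhibitor preincubation in Tris pH 7.5 buffer with DTT and CHAPS.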
# [1] = system: Human Peripheral Blood Mononuclear Cells (PBMC), mature IL-1β; assay: PBMC cell assay: IL-1β assay with human peripheral blood mononuclear cells; assay type: cell-based; settings: LPS-stimulated human PBMC, mature IL-1β in supernatant by ELISA
# How it was run: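 Donor PBMC (suspension at 6×10^6 cells/ml) or adherent-enriched monocytes were stimulated with 5 ng/ml LPS (final) alongside 5–6 compound dilutions bracketing the ICE Ki, at 0.1% DMSO final, for 16–18 hr at 37° C, 5% CO2. Mature IL-1β in supernatants was measured by ELISA; IC50 was calculated relative to LPS-only controls.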
# [2] = system: Human whole blood, IL-1β production; assay: Whole blood assay for IL-1β production; assay type: cell-based; settings: LPS-stimulated whole blood, IL-1β by ELISA
# How it was run: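 LPS-stimulated (5.0 ng/ml final) human whole blood incubated with test compound in saline (or plasma/PBS-5% DMSO for hydrophobic compounds) at 30° C for 16-18 hr. Plasma IL-1β then measured by ELISA at 1:200 dilution, against no-LPS, no-inhibitor and vehicle controls.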
Structure (SMILES),Ki (Caspase-1),IC50 [2],IC50 [1]
CC(=O)Nc1c(Cl)cc(C(=O)N[C@@H](C)C(=O)N2CCC[C@H]2C(=O)N[C@H](C=O)CC(=O)O)cc1Cl [Example 7z],10 to 1000 nM,< 2500 nM,1000 to 2000 nM
COc1ccc(C(=O)N[C@H](C(=O)N2C[C@H](NC(C)=O)C[C@H]2C(=O)N[C@H](C=O)CC(=O)O)C(C)C)cc1 [Example 9a],10 to 1000 nM,2500 to 7500 nM,500 to 1000 nM
COc1ccc(C(=O)N[C@H](C(=O)N2C[C@H](NC(=O)NC(C)C)C[C@H]2C(=O)N[C@H](C=O)CC(=O)O)C(C)C)cc1 [Example 9b],< 10 nM,2500 to 7500 nM,500 to 1000 nM
CC(C)NC(=O)N[C@@H]1C[C@@H](C(=O)N[C@H](C=O)CC(=O)O)N(C(=O)[C@@H](NC(=O)c2nccc3ccccc23)C(C)C)C1 [Example 9c],< 10 nM,< 2500 nM,< 500 nM
CC(C)[C@H](NC(=O)c1nccc2ccccc12)C(=O)N1C[C@H](NS(C)(=O)=O)C[C@H]1C(=O)N[C@H](C=O)CC(=O)O [Example 9d],< 10 nM,< 2500 nM,500 to 1000 nM
COC(=O)N[C@@H]1C[C@@H](C(=O)N[C@H](C=O)CC(=O)O)N(C(=O)[C@@H](NC(=O)c2ccc(OC)cc2)C(C)C)C1 [Example 9e],< 10 nM,2500 to 7500 nM,1000 to 2000 nM
COC(=O)N[C@@H]1C[C@@H](C(=O)N[C@H](C=O)CC(=O)O)N(C(=O)[C@@H](NC(=O)c2nccc3ccccc23)C(C)C)C1 [Example 9f],< 10 nM,< 2500 nM,500 to 1000 nM
CC(=O)N[C@@H]1C[C@@H](C(=O)N[C@H](C=O)CC(=O)O)N(C(=O)[C@@H](NC(=O)c2nccc3ccccc23)C(C)C)C1 [Example 9g],< 10 nM,2500 to 7500 nM,1000 to 2000 nM
Cc1cc(C(=O)N[C@H](C(=O)N2CCNCC2C(=O)N[C@H](C=O)CC(=O)O)C(C)C)cc(C)c1O (stereo partly drawn) [Example 15a],< 10 nM,2500 to 7500 nM,> 2000 nM
CC(C)[C@H](NC(=O)c1nccc2ccccc12)C(=O)N1CCNCC1C(=O)N[C@H](C=O)CC(=O)O (stereo partly drawn) [Example 15b],< 10 nM,2500 to 7500 nM,1000 to 2000 nM
COc1ccc(C(=O)N[C@H](C(=O)N2CCNC[C@H]2C(=O)N[C@H](C=O)CC(=O)O)C(C)C)cc1 [Example 15c],< 10 nM,< 2500 nM,500 to 1000 nM

# Now from value to compound, other results behind:
Ki (Caspase-1),IC50 [2],Structure (SMILES),IC50 [1]
< 10 nM,< 2500 nM,C[C@H](NC(=O)c1ccc(N)c(Cl)c1)C(=O)N1CCNC[C@H]1C(=O)N[C@H](C=O)CC(=O)O [Example 16b],1000 to 2000 nM
10 to 1000 nM,< 2500 nM,COCC(=O)N1CCN(C(=O)[C@H](C)NC(=O)c2nccc3ccccc23)[C@H](C(=O)N[C@H](C=O)CC(=O)O)C1 [Example 18a],500 to 1000 nM
< 10 nM,< 2500 nM,CC(C)S(=O)(=O)N1CCN(C(=O)[C@H](C)NC(=O)c2nccc3ccccc23)[C@H](C(=O)N[C@H](C=O)CC(=O)O)C1 [Example 18b],500 to 1000 nM
10 to 1000 nM,< 2500 nM,C[C@H](NC(=O)c1nccc2ccccc12)C(=O)N1CCN(C(N)=O)C[C@H]1C(=O)N[C@H](C=O)CC(=O)O [Example 18c],500 to 1000 nM
10 to 1000 nM,< 2500 nM,CC(=O)N1CCN(C(=O)[C@H](C)NC(=O)c2nccc3ccccc23)[C@H](C(=O)N[C@H](C=O)CC(=O)O)C1 [Example 18d],500 to 1000 nM
< 10 nM,< 2500 nM,CC(C)NC(=O)N1CCN(C(=O)[C@H](C)NC(=O)c2nccc3ccccc23)[C@H](C(=O)N[C@H](C=O)CC(=O)O)C1 [Example 18e],1000 to 2000 nM
< 10 nM,< 2500 nM,CC(C)(C)[C@H](NC(=O)c1nccc2ccccc12)C(=O)N1CCC[C@H]1C(=O)N[C@H](C=O)CC(=O)O [Example 20a],500 to 1000 nM
< 10 nM,> 7500 nM,CC(C)(C)[C@H](NC(=O)c1cccc2ccccc12)C(=O)N1CCC[C@H]1C(=O)N[C@H](C=O)CC(=O)O [Example 20b],500 to 1000 nM
< 10 nM,2500 to 7500 nM,CCC(C)[C@H](NC(=O)c1nccc2ccccc12)C(=O)N1CCC[C@H]1C(=O)N[C@H](C=O)CC(=O)O (stereo partly drawn) [Example 20c],1000 to 2000 nM
10 to 1000 nM,2500 to 7500 nM,C[C@@H](O)[C@H](NC(=O)c1nccc2ccccc12)C(=O)N1CCC[C@H]1C(=O)N[C@H](C=O)CC(=O)O [Example 20d],> 2000 nM
< 10 nM,2500 to 7500 nM,CC[C@H](NC(=O)c1nccc2ccccc12)C(=O)N1CCC[C@H]1C(=O)N[C@H](C=O)CC(=O)O [Example 20e],1000 to 2000 nM
< 10 nM,< 2500 nM,CCC(C)[C@H](NC(=O)c1cc(Cl)c(O)c(Cl)c1)C(=O)N1CCC[C@H]1C(=O)N[C@H](C=O)CC(=O)O (stereo partly drawn) [Example 20k],< 500 nM
< 10 nM,< 2500 nM,C[C@@H](O)[C@H](NC(=O)c1cc(Cl)c(O)c(Cl)c1)C(=O)N1CCC[C@H]1C(=O)N[C@H](C=O)CC(=O)O [Example 20l],500 to 1000 nM
< 10 nM,< 2500 nM,O=C[C@H](CC(=O)O)NC(=O)[C@@H]1CCCN1C(=O)[C@H](Cc1cccnc1)NC(=O)c1cc(Cl)c(O)c(Cl)c1 [Example 20n],500 to 1000 nM
< 10 nM,< 2500 nM,CSC[C@H](NC(=O)c1cc(Cl)c(O)c(Cl)c1)C(=O)N1CCC[C@H]1C(=O)N[C@H](C=O)CC(=O)O [Example 20o],< 500 nM
< 10 nM,< 2500 nM,"CS(=O)(=O)CC[C@H](NC(=O)c1cc(Cl)c(O)c(Cl)c1)C(=O)N1CCC[C@H]1C(=O)N[C@H](C=O)CC(=O)O [Example 20p, 3-({1-[2-(3,5-dichloro-4-hydroxy-benizoylamino)-4-methanesulfonyl-butyryl]-pyrrolidine-2-carbonyl}-amino)-4-oxo-butyric acid]",< 500 nM
10 to 1000 nM,> 7500 nM,CCC(C)[C@H](NC(=O)c1ccc(N)c(Cl)c1)C(=O)N1CCC[C@H]1C(=O)N[C@H](C=O)CC(=O)O (stereo partly drawn) [Example 20q],500 to 1000 nM
10 to 1000 nM,2500 to 7500 nM,"CS(=O)(=O)C[C@H](NC(=O)c1nccc2ccccc12)C(=O)N1CCC[C@H]1C(=O)N[C@H](C=O)CC(=O)O [Example 20r, 3-[(1-{2-[(isoquinoline-1-carbonyl)-amino]-3-methanesulfonyl-propionyl}-pyrrolidine-2-carbonyl)-amino]-4-oxo-butyric acid]",500 to 1000 nM
< 10 nM,< 2500 nM,"CS(=O)(=O)CC(NC(=O)c1cc(Cl)c(O)c(Cl)c1)C(=O)N1CCCC1C(=O)NC(C=O)CC(=O)O (stereo not drawn) [Example 20s, 3-({1-[2-(3,5-dichloro-4-hydroxy-benzoylamino)-3-methanesulfonyl-propionyl]-pyrrolidine-2-carbonyl}-amino)-4-oxo-butyric acid]",1000 to 2000 nM
10 to 1000 nM,< 2500 nM,CS(=O)(=O)C[C@H](NC(=O)c1ccc(N)c(Cl)c1)C(=O)N1CCC[C@H]1C(=O)N[C@H](C=O)CC(=O)O [Example 20t],500 to 1000 nM

# Reference: US20030232986A1, “Inhibitors of caspases” (Vertex Pharmaceuticals Incorporated, priority 1998, published 2003)
